Assay results from patent US11426421B2, “Composition for preventing or improving inflammation including extract of seed of new soybean cultivar SCEL-1” (KOREA INSTITUTE OF SCIENCE AND TECHNOLOGY, priority 2018, dated 2022).

Tested on: oxazolone-induced atopic dermatitis in mice
Experiment: Oxazolone-induced atopic dermatitis in mice, samples applied to the ear, ear thickness (H&E histology)
Type: in vivo, mouse
Details: positive control group (Dexa), concentration not given; FIG. 2
Procedure: In a mouse, oxazolone was administered thereto to induce an oxazolone-induced atopic dermatitis. Then, the effect of the extract of the selected cultivar on atopic dermatitis was examined.
In detail, mice (male, 20 g, 8-week-old, Central Lab. Animal Inc.) was divided into a group of 6, and each group was named as a control group, a induction group (Vehicle), a positive control group (Dexa), a soybean SCEL-1 0.1% (w/v)-treated group, a soybean SCEL-1 0.3% (w/v)-treated group, a SCEL-1 1.0% (w/v)-treated group, and a general black soybean (available from Nonghyup of Gangneungkyo-1-dong) 1.0% (w/v)-treated group. Each sample was prepared in the same manner as in Section (1).
To induce atopic dermatitis in mice, 40 μl of 1% oxazolone per ear was applied once a day. After one week and starting from the eighth day, 40 μl of 1% oxazolone per ear was applied on alternate days for three weeks. In addition, starting from the eighth day, in addition to the oxazolone application, samples were also applied twice a day. Immediately after the experiment, a tissue of the ear was immobilized in 10% paraformaldehyde for 24 hours or more, and then, immersed in paraffin to form a block. The block was then fixed, and cut to a thickness of 10 μm by using a microtome that enables cutting to a constant thickness. […]

C[C@@H]1C[C@H]2[C@@H]3CCC4=CC(=O)C=C[C@]4(C)[C@@]3(F)[C@@H](O)C[C@]2(C)[C@@]1(O)C(=O)CO [dexamethanosone]
ear thickness of the mouse having oxazolone-induced atopic dermatitis: reduced to a thickness near the normal level
